# Data from patent US11168057B2, “Polymorphs and co-crystals of roxadustat” (DR. REDDY'S LABORATORIES LIMITED, priority 2017, dated 2021).
# Test: Storage stability in three ICH conditions for three months (water content, purity, PXRD)
# Assay type: physicochemical
# Details: for storage stability: all three ICH conditions for three months
# Text: The data presented below substantiate that the Form RLP has a high storage stability. Pack-1 (Normal LDPE Bag with 1 g Silica Gel, Packed in a HDPE Container):
# Pack-2 (Black Colored LDPE Bag with 1 g Silica Gel, Packed in a HDPE Container):
# The data presented below substantiate that the Form RNM has a high storage stability.
# Pack-1 (LDPE Bag with 1 g Molecular Sieve, Packed in a HDPE Container):
# Pack-2 (LDPE Bag with 1 g Silica Gel, Packed in a HDPE Container): […]
# [1] = Pack-1 (Normal LDPE Bag with 1 g Silica Gel, HDPE Container), 2-8° C., 1st Month
# [2] = Pack-1 (Normal LDPE Bag with 1 g Silica Gel, HDPE Container), 2-8° C., 3rd Month
# [3] = Pack-1 (Normal LDPE Bag with 1 g Silica Gel, HDPE Container), 2-8° C., Initial
# [4] = Pack-1 (Normal LDPE Bag with 1 g Silica Gel, HDPE Container), 25 ± 2° C., 60 ± 5% RH, 1st Month
# [5] = Pack-1 (Normal LDPE Bag with 1 g Silica Gel, HDPE Container), 25 ± 2° C., 60 ± 5% RH, 3rd Month
# [6] = Pack-1 (Normal LDPE Bag with 1 g Silica Gel, HDPE Container), 25 ± 2° C., 60 ± 5% RH, Initial
# [7] = Pack-1 (Normal LDPE Bag with 1 g Silica Gel, HDPE Container), 40 ± 2° C., 75 ± 5% RH, 1st Month
# [8] = Pack-1 (Normal LDPE Bag with 1 g Silica Gel, HDPE Container), 40 ± 2° C., 75 ± 5% RH, 3rd Month
# [9] = Pack-1 (Normal LDPE Bag with 1 g Silica Gel, HDPE Container), 40 ± 2° C., 75 ± 5% RH, Initial
# [10] = Pack-2 (Black Colored LDPE Bag with 1 g Silica Gel, HDPE Container), 2-8° C., 1st Month
# [11] = Pack-2 (Black Colored LDPE Bag with 1 g Silica Gel, HDPE Container), 2-8° C., 3rd Month
# [12] = Pack-2 (Black Colored LDPE Bag with 1 g Silica Gel, HDPE Container), 2-8° C., Initial
# [13] = Pack-2 (Black Colored LDPE Bag with 1 g Silica Gel, HDPE Container), 25 ± 2° C., 60 ± 5% RH, 1st Month
# [14] = Pack-2 (Black Colored LDPE Bag with 1 g Silica Gel, HDPE Container), 25 ± 2° C., 60 ± 5% RH, 3rd Month
# [15] = Pack-2 (Black Colored LDPE Bag with 1 g Silica Gel, HDPE Container), 25 ± 2° C., 60 ± 5% RH, Initial
# [16] = Pack-2 (Black Colored LDPE Bag with 1 g Silica Gel, HDPE Container), 40 ± 2° C., 75 ± 5% RH, 1st Month
# [17] = Pack-2 (Black Colored LDPE Bag with 1 g Silica Gel, HDPE Container), 40 ± 2° C., 75 ± 5% RH, 3rd Month
# [18] = Pack-2 (Black Colored LDPE Bag with 1 g Silica Gel, HDPE Container), 40 ± 2° C., 75 ± 5% RH, Initial
# [19] = Pack-1 (LDPE Bag with 1 g Molecular Sieve, HDPE Container), 2-8° C., 1st Month
# [20] = Pack-1 (LDPE Bag with 1 g Molecular Sieve, HDPE Container), 2-8° C., 3rd Month
# [21] = Pack-1 (LDPE Bag with 1 g Molecular Sieve, HDPE Container), 2-8° C., Initial
# [22] = Pack-1 (LDPE Bag with 1 g Molecular Sieve, HDPE Container), 25 ± 2° C., 60 ± 5% RH, 1st Month
# [23] = Pack-1 (LDPE Bag with 1 g Molecular Sieve, HDPE Container), 25 ± 2° C., 60 ± 5% RH, 3rd Month
# [24] = Pack-1 (LDPE Bag with 1 g Molecular Sieve, HDPE Container), 25 ± 2° C., 60 ± 5% RH, Initial
# [25] = Pack-1 (LDPE Bag with 1 g Molecular Sieve, HDPE Container), 40 ± 2° C., 75 ± 5% RH, 1st Month
# [26] = Pack-1 (LDPE Bag with 1 g Molecular Sieve, HDPE Container), 40 ± 2° C., 75 ± 5% RH, 3rd Month
# [27] = Pack-1 (LDPE Bag with 1 g Molecular Sieve, HDPE Container), 40 ± 2° C., 75 ± 5% RH, Initial
# [28] = Pack-2 (LDPE Bag with 1 g Silica Gel, HDPE Container), 2-8° C., 1st Month
# [29] = Pack-2 (LDPE Bag with 1 g Silica Gel, HDPE Container), 2-8° C., 3rd Month
# [30] = Pack-2 (LDPE Bag with 1 g Silica Gel, HDPE Container), 2-8° C., Initial
# [31] = Pack-2 (LDPE Bag with 1 g Silica Gel, HDPE Container), 25 ± 2° C., 60 ± 5% RH, 1st Month
# [32] = Pack-2 (LDPE Bag with 1 g Silica Gel, HDPE Container), 25 ± 2° C., 60 ± 5% RH, 3rd Month
# [33] = Pack-2 (LDPE Bag with 1 g Silica Gel, HDPE Container), 25 ± 2° C., 60 ± 5% RH, Initial
# [34] = Pack-2 (LDPE Bag with 1 g Silica Gel, HDPE Container), 40 ± 2° C., 75 ± 5% RH, 1st Month
# [35] = Pack-2 (LDPE Bag with 1 g Silica Gel, HDPE Container), 40 ± 2° C., 75 ± 5% RH, 3rd Month
# [36] = Pack-2 (LDPE Bag with 1 g Silica Gel, HDPE Container), 40 ± 2° C., 75 ± 5% RH, Initial
smiles,measurement,setting,value
Cc1nc(C(=O)NCC(=O)O)c(O)c2ccc(Oc3ccccc3)cc12.O=C(O)[C@@H]1CCCN1 [Form RLP],PXRD,[1],No change
same,Purity,[1],99.84%
same,Water content,[1],0.11 % w/w
same,PXRD,[2],No change
same,Purity,[2],99.85%
same,Water content,[2],0.14 % w/w
same,PXRD,[3],Form RLP
same,Purity,[3],99.84%
same,Water content,[3],0.09 % w/w
same,PXRD,[4],No change
same,Purity,[4],99.84%
same,Water content,[4],0.14 % w/w
same,PXRD,[5],No change
same,Purity,[5],99.86%
same,Water content,[5],0.12 % w/w
same,PXRD,[6],Form RLP
same,Purity,[6],99.84%
same,Water content,[6],0.09 % w/w
same,PXRD,[7],No change
same,Purity,[7],99.84%
same,Water content,[7],0.16 % w/w
same,PXRD,[8],No change
same,Purity,[8],99.83%
same,Water content,[8],0.21 % w/w
same,PXRD,[9],Form RLP
same,Purity,[9],99.84%
same,Water content,[9],0.09 % w/w
same,PXRD,[10],No change
same,Purity,[10],99.82%
same,Water content,[10],0.14 % w/w
same,PXRD,[11],No change
same,Purity,[11],99.85%
same,Water content,[11],0.16 % w/w
same,PXRD,[12],Form RLP
same,Purity,[12],99.84%
same,Water content,[12],0.09 % w/w
same,PXRD,[13],No change
same,Purity,[13],99.84%
same,Water content,[13],0.11 % w/w
same,PXRD,[14],No change
same,Purity,[14],99.82%
same,Water content,[14],0.13 % w/w
same,PXRD,[15],Form RLP
same,Purity,[15],99.84%
same,Water content,[15],0.09 % w/w
same,PXRD,[16],No change
same,Purity,[16],99.83%
same,Water content,[16],0.14 % w/w
same,PXRD,[17],No change
same,Purity,[17],99.85%
same,Water content,[17],0.11 % w/w
same,PXRD,[18],Form RLP
same,Purity,[18],99.84%
same,Water content,[18],0.09 % w/w
same,storage stability,,stable
Cc1nc(C(=O)NCC(=O)O)c(O)c2ccc(Oc3ccccc3)cc12.NC(=O)c1cccnc1 [Form RNM],PXRD,[19],No change
same,Purity,[19],99.66%
same,Water content,[19],0.08 % w/w
same,PXRD,[20],No change
same,Purity,[20],99.66%
same,Water content,[20],0.08 % w/w
same,PXRD,[21],Form RNM
same,Purity,[21],99.57%
same,Water content,[21],0.12 % w/w
same,PXRD,[22],No change
same,Purity,[22],99.63%
same,Water content,[22],0.07 % w/w
same,PXRD,[23],No change
same,Purity,[23],99.64%
same,Water content,[23],0.08 % w/w
same,PXRD,[24],Form RNM
same,Purity,[24],99.57%
same,Water content,[24],0.12 % w/w
same,PXRD,[25],No change
same,Purity,[25],99.65%
same,Water content,[25],0.10 % w/w
same,PXRD,[26],No change
same,Purity,[26],99.62%
same,Water content,[26],0.07 % w/w
same,PXRD,[27],Form RNM
same,Purity,[27],99.57%
same,Water content,[27],0.12 % w/w
same,PXRD,[28],No change
same,Purity,[28],99.62%
same,Water content,[28],0.10 % w/w
same,PXRD,[29],No change
same,Purity,[29],99.65%
same,Water content,[29],0.08 % w/w
same,PXRD,[30],Form RNM
same,Purity,[30],99.57%
same,Water content,[30],0.12 % w/w
same,PXRD,[31],No change
same,Purity,[31],99.65%
same,Water content,[31],0.07 % w/w
same,PXRD,[32],No change
same,Purity,[32],99.64%
same,Water content,[32],0.11 % w/w
same,PXRD,[33],Form RNM
same,Purity,[33],99.57%
same,Water content,[33],0.12 % w/w
same,PXRD,[34],No change
same,Purity,[34],99.61%
same,Water content,[34],0.12 % w/w
same,PXRD,[35],No change
same,Purity,[35],99.62%
same,Water content,[35],0.07 % w/w
same,PXRD,[36],Form RNM
same,Purity,[36],99.57%
same,Water content,[36],0.12 % w/w
same,storage stability,,stable
